# Assay results from patent US20250114338A1, “TETRAHYDRO-PYRIDO[3,4-b]INDOLE ESTROGEN RECEPTOR MODULATORS AND USES THEREOF” (Genentech, Inc., priority 2014, published 2025).
# Test system: ER-alpha MCF7
# Assay: ER-alpha MCF7 HCS EC50; stated as measured by in vitro cell proliferation assays of Examples 902 and 903
# Type: cell-based
# Conditions: Homo sapiens, MCF7, MCF7 cells; Table 2
# Summary of the method: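 MCF7 cells seeded 1000-2000 cells/well for 16 h, then treated with nine-point 1:2 DMSO dilution series in quadruplicate at 37 °C, 5% CO2 for 4 days. Viable cells quantified by CellTiter-Glo ATP luminescence; EC50 calculated. Controls: fulvestrant at final 100 nM, DMSO 0.2% v/v.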
row,SMILES,EC50 [nM]
1,"C[C@H]1Cc2c([nH]c3ccc(F)cc23)[C@H](c2c(F)cc(OC3CN(CCCF)C3)cc2F)N1CC(F)(F)F [Example 357, (1S,3S)-1-(2,6-difluoro-4-((1-(3-fluoropropyl)azetidin-3-yl)oxy)phenyl)-6-fluoro-3-methyl-2-(2,2,2-trifluoroethyl)-2,3,4,9-tetrahydro-1H-pyrido[3,4-b]indole]",26.1
2,"C[C@@H]1Cc2c([nH]c3ccc(F)cc23)[C@@H](c2c(F)cc(OC3CN(CCCF)C3)cc2F)N1CC(F)(F)F [Example 358, (1R,3R)-1-(2,6-difluoro-4-((1-(3-fluoropropyl)azetidin-3-yl)oxy)phenyl)-6-fluoro-3-methyl-2-(2,2,2-trifluoroethyl)-2,3,4,9-tetrahydro-1H-pyrido[3,4-b]indole]",0.417
3,"C[C@@H]1Cc2c([nH]c3ccc(F)cc23)[C@@H](c2c(F)cc(OCCN3CC(CF)C3)cc2F)N1CC(F)(F)CO [Example 359, 3-((1R,3R)-1-(2,6-difluoro-4-(2-(3-(fluoromethyl)azetidin-1-yl)ethoxy)phenyl)-6-fluoro-3-methyl-1,3,4,9-tetrahydro-2H-pyrido[3,4-b]indol-2-yl)-2,2-difluoropropan-1-ol]",0.552
4,"C[C@H]1Cc2c([nH]c3ccc(F)cc23)[C@H](c2c(F)cc(OCCN3CC(CF)C3)cc2F)N1CC(F)(F)CO [Example 360, 3-((1S,3S)-1-(2,6-difluoro-4-(2-(3-(fluoromethyl)azetidin-1-yl)ethoxy)phenyl)-6-fluoro-3-methyl-1,3,4,9-tetrahydro-2H-pyrido[3,4-b]indol-2-yl)-2,2-difluoropropan-1-ol]",9
5,"C[C@@H]1Cc2c([nH]c3ccccc23)[C@@H](c2c(F)cc(OCCN3CC(CF)C3)cc2F)N1CCC(F)(F)F [Example 361, (1R,3R)-1-[2,6-difluoro-4-[2-[3-(fluoromethyl)azetidin-1-yl]ethoxy]phenyl]-3-methyl-2-(3,3,3-trifluoropropyl)-1,3,4,9-tetrahydropyrido[3,4-b]indole]",3
6,"C[C@@H]1Cc2c([nH]c3ccccc23)[C@H](c2c(F)cc(OCCN3CC(CF)C3)cc2F)N1CCC(F)(F)F [Example 362, (1S,3R)-1-[2,6-difluoro-4-[2-[3-(fluoromethyl)azetidin-1-yl]ethoxy]phenyl]-3-methyl-2-(3,3,3-trifluoropropyl)-1,3,4,9-tetrahydropyrido[3,4-b]indole]",> 100
7,"C[C@@H]1Cc2c([nH]c3ccc(F)cc23)[C@@H](c2c(F)cc(OC3CN(CCCF)C3)cc2F)N1CC(F)(F)CO [Example 363, 3-((1R,3R)-1-(2,6-difluoro-4-((1-(3-fluoropropyl)azetidin-3-yl)oxy)phenyl)-6-fluoro-3-methyl-1,3,4,9-tetrahydro-2H-pyrido[3,4-b]indol-2-yl)-2,2-difluoropropan-1-ol]",0.166
8,"C[C@H]1Cc2c([nH]c3ccc(F)cc23)[C@H](c2c(F)cc(OC3CN(CCCF)C3)cc2F)N1CC(F)(F)CO [Example 364, 3-((1S,3S)-1-(2,6-difluoro-4-((1-(3-fluoropropyl)azetidin-3-yl)oxy)phenyl)-6-fluoro-3-methyl-1,3,4,9-tetrahydro-2H-pyrido[3,4-b]indol-2-yl)-2,2-difluoropropan-1-ol]",9
9,"C[C@@H]1Cc2c([nH]c3ccccc23)[C@@H](c2c(F)cc(NC3CN(CCCF)C3)cc2F)N1C[C@H](C)C(=O)O [Example 367, (2S)-3-[(1R,3R)-1-[2,6-difluoro-4-[[1-(3-fluoropropyl)azetidin-3-yl]amino]phenyl]-3-methyl-1,3,4,9-tetrahydropyrido[3,4-b]indol-2-yl]-2-methyl-propanoic acid]",8
10,"C[C@@H]1Cc2c([nH]c3ccc(F)cc23)[C@@H](c2c(F)cc(OC3CN(CCCF)C3)cc2F)N1C[C@](C)(F)CO [Example 368, 3-(1-{2,6-Difluoro-4-[1-(3-fluoro-propyl)-azetidin-3-yloxy]-phenyl}-6-fluoro-3-methyl-1,3,4,9-tetrahydro-beta-carbolin-2-yl)-2-fluoro-2-methyl-propan-1-ol]",0.546
11,"C[C@H]1Cc2c([nH]c3ccc(F)cc23)[C@H](c2c(F)cc(OC3CN(CCCF)C3)cc2F)N1C[C@@](C)(F)CO [Example 369, 3-((1S,3S)-1-(2,6-difluoro-4-((1-(3-fluoropropyl)azetidin-3-yl)oxy)phenyl)-6-fluoro-3-methyl-1,3,4,9-tetrahydro-2H-pyrido[3,4-b]indol-2-yl)-2-fluoro-2-methylpropan-1-ol]",24
12,"C[C@@H]1Cc2c([nH]c3ccc(F)cc23)[C@@H](c2c(F)cc(OC3CN(CCCF)C3)cc2F)N1C[C@@](C)(F)CO [Example 370, 3-((1R,3R)-1-(2,6-difluoro-4-((1-(3-fluoropropyl)azetidin-3-yl)oxy)phenyl)-6-fluoro-3-methyl-1,3,4,9-tetrahydro-2H-pyrido[3,4-b]indol-2-yl)-2-fluoro-2-methylpropan-1-ol]",0.203
13,"C[C@H]1Cc2c([nH]c3ccc(F)cc23)[C@H](c2c(F)cc(OC3CN(CCCF)C3)cc2F)N1C[C@](C)(F)CO [Example 371, 3-((1S,3S)-1-(2,6-difluoro-4-((1-(3-fluoropropyl)azetidin-3-yl)oxy)phenyl)-6-fluoro-3-methyl-1,3,4,9-tetrahydro-2H-pyrido[3,4-b]indol-2-yl)-2-fluoro-2-methylpropan-1-ol]",9
14,"C[C@@H]1Cc2c([nH]c3ccc(F)cc23)[C@@H](c2c(F)cc(NC3CN(CCCF)C3)cc2F)N1CC(F)(F)F [Example 372, N-(3,5-difluoro-4-((1R,3R)-6-fluoro-3-methyl-2-(2,2,2-trifluoroethyl)-2,3,4,9-tetrahydro-1H-pyrido[3,4-b]indol-1-yl)phenyl)-1-(3-fluoropropyl)azetidin-3-amine]",0.198
15,"C[C@H]1Cc2c([nH]c3ccc(F)cc23)[C@H](c2c(F)cc(NC3CN(CCCF)C3)cc2F)N1CC(F)(F)F [Example 373, N-(3,5-difluoro-4-((1S,3S)-6-fluoro-3-methyl-2-(2,2,2-trifluoroethyl)-2,3,4,9-tetrahydro-1H-pyrido[3,4-b]indol-1-yl)phenyl)-1-(3-fluoropropyl)azetidin-3-amine]",18
16,"C[C@@H]1Cc2c([nH]c3ccccc23)[C@@H](c2c(F)cc(OCCN3CC(CF)C3)cc2F)N1CC(C)(C)C(=O)O [Example 374, 3-((1R,3R)-1-(2,6-difluoro-4-(2-(3-(fluoromethyl)azetidin-1-yl)ethoxy)phenyl)-3-methyl-1,3,4,9-tetrahydro-2H-pyrido[3,4-b]indol-2-yl)-2,2-dimethylpropanoic acid]",1.55
17,"C[C@@H]1Cc2c([nH]c3ccccc23)[C@@H](c2c(F)cc(OC3CN(CCCF)C3)cc2F)N1C[C@H](CO)C(F)(F)F [Example 375, (R)-2-(((1R,3R)-1-(2,6-difluoro-4-((1-(3-fluoropropyl)azetidin-3-yl)oxy)phenyl)-3-methyl-1,3,4,9-tetrahydro-2H-pyrido[3,4-b]indol-2-yl)methyl)-3,3,3-trifluoropropan-1-ol]",0.764
18,"C[C@@H]1Cc2c([nH]c3ccccc23)[C@@H](c2c(F)cc(OC3CN(CCCF)C3)cc2F)N1C[C@@H](CO)C(F)(F)F [Example 376, (S)-2-(((1R,3R)-1-(2,6-difluoro-4-((1-(3-fluoropropyl)azetidin-3-yl)oxy)phenyl)-3-methyl-1,3,4,9-tetrahydro-2H-pyrido[3,4-b]indol-2-yl)methyl)-3,3,3-trifluoropropan-1-ol]",1
19,"C[C@@H]1Cc2c([nH]c3ccccc23)[C@@H](c2cnc(OC3CN(CCCF)C3)nc2)N1CC(C)(C)F [Example 377, (1R,3R)-2-(2-fluoro-2-methylpropyl)-1-(2-((1-(3-fluoropropyl)azetidin-3-yl)oxy)pyrimidin-5-yl)-3-methyl-2,3,4,9-tetrahydro-1H-pyrido[3,4-b]indole]",0.5
20,"C[C@@H]1Cc2c([nH]c3ccccc23)[C@H](c2c(F)cc(OCCN3CC(CF)C3)cc2F)N1CC(C)(C)C(=O)O [Example 378, 3-[(1S,3R)-1-[2,6-difluoro-4-[2-[3-(fluoromethyl)azetidin-1-yl]ethoxy]phenyl]-3-methyl-1,3,4,9-tetrahydropyrido[3,4-b]indol-2-yl]-2,2-dimethyl-propanoic acid]",28
21,"C[C@@H]1Cc2c([nH]c3ccccc23)[C@@H](c2c(F)cc(OCCN3CC(CF)C3)cc2F)N1CC(C)(F)F [Example 379, (1R,3R)-1-(2,6-difluoro-4-(2-(3-(fluoromethyl)azetidin-1-yl)ethoxy)phenyl)-2-(2,2-difluoropropyl)-3-methyl-2,3,4,9-tetrahydro-1H-pyrido[3,4-b]indole]",0.28
22,"C[C@@H]1Cc2c([nH]c3ccccc23)[C@@H](c2ccc([C@@H](O)C3CN(CCCF)C3)cc2)N1CC(C)(C)F [Example 380, (S)-(4-((1R,3R)-2-(2-fluoro-2-methylpropyl)-3-methyl-2,3,4,9-tetrahydro-1H-pyrido[3,4-b]indol-1-yl)phenyl)(1-(3-fluoropropyl)azetidin-3-yl)methanol]",0.188
23,"C[C@@H]1Cc2c([nH]c3ccccc23)[C@@H](c2ccc([C@H](O)C3CN(CCCF)C3)cc2)N1CC(C)(C)F [Example 381, (R)-(4-((1R,3R)-2-(2-fluoro-2-methylpropyl)-3-methyl-2,3,4,9-tetrahydro-1H-pyrido [3,4-b]indol-1-yl)phenyl)(1-(3-fluoropropyl)azetidin-3-yl)methanol]",0.605
24,"C[C@@H]1Cc2c([nH]c3ccccc23)[C@@H](c2c(F)cc(NC3CN(CCCF)C3)cc2F)N1CC(C)(C)C(=O)O [Example 382, 3-((1R,3R)-1-(2,6-difluoro-4-((1-(3-fluoropropyl)azetidin-3-yl)amino)phenyl)-3-methyl-1,3,4,9-tetrahydro-2H-pyrido[3,4-b]indol-2-yl)-2,2-dimethylpropanoic acid]",1.01
25,"C[C@@H]1Cc2c([nH]c3ccc(F)cc23)[C@@H](c2c(F)cc(OCCN3CC(CF)C3)cc2F)N1CC(F)F [Example 383, (1R,3R)-1-(2,6-difluoro-4-(2-(3-(fluoromethyl)azetidin-1-yl)ethoxy)phenyl)-2-(2,2-difluoroethyl)-6-fluoro-3-methyl-2,3,4,9-tetrahydro-1H-pyrido[3,4-b]indole]",0.28
